Results: patent US20020142334A1, “Methods of detecting poly(ADP-ribose) polymerase enzymatic activity” (priority 2001, published 2002)
Read-outs that look alike come from different tables or passages of the source.

Assays:
[1] = target: T1, PARP (Homo sapiens, UniProt P09874); settings: reported values, see footnote; read-out: IC50 cited in the Literature; cited from earlier work
T1 construct: purchased R&D Systems, Inc. TA5334

[2] = target: T2, human PARP-1 (Homo sapiens, UniProt P09874); experiment: Biotin-Avidin PARP assay (biotinylated NAD auto-ribosylation, immobilized PARP); type: biochemical
T2 construct: purchased Trevigen 4667-250-01
Description: ELISA plates (96-well) were coated with recombinant human PARP-1 overnight at 4° C.
Prior to the activity assay, the plates were washed three times in PBS-T.
The control reactions were carried out in the absence of sheared DNA in order to determine background activity for the reaction(s). […] The optical density for each sample was measured at 410 nm.
The inhibitors were first dissolved in DMSO and then serially diluted in DMSO to create stock solutions which were added to the auto-ribosylation buffer to achieve the desired range of final concentrations of the inhibitors in the nanomolar to millimolar range.

[3] = target: T1, PARP; experiment: commercially available [32P] NAD-based PARP assay (R&D Systems); type: biochemical; settings: [32P]-NAD based kit
Description: The present method was conducted in the presence of known PARP inhibitors of varying potencies, tested at a range of concentrations. The experiment was conducted to determine if the IC50 values generated by the assay of the present invention were in agreement with previously reported IC50 values for these compounds and IC50 values generated by a commercially available [^32P] NAD-based PARP assay (R&D Systems, Inc., Minneapolis, Minn., Cat#TA5334). [^32P]-NAD was obtained from Amersham Pharmacia Biotech, Piscataway, N.J.

T1 sequence (P09874 whole entry): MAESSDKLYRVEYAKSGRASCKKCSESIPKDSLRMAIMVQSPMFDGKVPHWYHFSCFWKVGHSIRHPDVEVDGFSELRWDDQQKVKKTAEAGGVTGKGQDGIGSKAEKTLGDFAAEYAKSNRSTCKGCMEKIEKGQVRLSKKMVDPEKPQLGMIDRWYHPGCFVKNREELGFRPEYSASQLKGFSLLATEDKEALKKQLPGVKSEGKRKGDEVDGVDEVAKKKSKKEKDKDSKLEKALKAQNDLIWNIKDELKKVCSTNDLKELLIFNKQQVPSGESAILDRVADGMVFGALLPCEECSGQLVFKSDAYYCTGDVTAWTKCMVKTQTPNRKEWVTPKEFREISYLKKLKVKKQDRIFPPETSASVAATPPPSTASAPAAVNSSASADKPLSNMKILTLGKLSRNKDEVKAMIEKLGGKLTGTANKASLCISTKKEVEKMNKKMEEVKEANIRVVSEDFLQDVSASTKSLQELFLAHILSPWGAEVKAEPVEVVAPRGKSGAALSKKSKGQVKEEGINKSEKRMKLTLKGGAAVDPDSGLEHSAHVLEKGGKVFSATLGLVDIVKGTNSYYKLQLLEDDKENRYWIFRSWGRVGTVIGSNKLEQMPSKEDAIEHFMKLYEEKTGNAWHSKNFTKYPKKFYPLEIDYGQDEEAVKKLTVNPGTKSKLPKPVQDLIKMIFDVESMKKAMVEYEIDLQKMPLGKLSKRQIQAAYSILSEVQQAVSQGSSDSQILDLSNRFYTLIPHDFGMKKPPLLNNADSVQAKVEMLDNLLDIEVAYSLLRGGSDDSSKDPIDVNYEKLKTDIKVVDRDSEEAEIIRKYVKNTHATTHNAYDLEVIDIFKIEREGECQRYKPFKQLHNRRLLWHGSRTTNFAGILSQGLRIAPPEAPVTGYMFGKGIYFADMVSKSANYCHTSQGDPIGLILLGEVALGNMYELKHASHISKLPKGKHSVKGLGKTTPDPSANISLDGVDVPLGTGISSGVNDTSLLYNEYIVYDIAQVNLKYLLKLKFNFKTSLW
T2 sequence (P09874 whole entry): as above

IC50 [2] [nM]	IC50 [3] [nM]	IC50 ([2]; PARP-1 coated on plates overnight at 4° C., 25 μM biotinylated NAD, 100 μM unlabelled NAD, sheared DNA, read-out: Biotin Avidin PARP (IC50)) [nM]	Structure (SMILES)	IC50 [1] [nM]
460	318	–	Cc1nc2c(O)cccc2c(=O)[nH]1 [Compound A, 8-hydroxy-2-methyl-quinazolin-4-[3H]-one]	400
–	334	329	NC(=O)c1cccc2cccc(C(=O)O)c12 [Compound B, 8-carboximido-napthalene-1-carboxylic acid]	250
